Experimental data taken from US12098176B2, “Keratin BD-4, preparation method, and pharmaceutical composition and use thereof” (Institute of Materia Medica, Chinese Academy of Medical …, priority 2019, dated 2024).
Counter-ions that a name gives are not always drawn. Marks after values point to notes of the source that are not given here.

Legend:
[1] = tested on: mice cough induced by ammonia water; assay: Antitussive test, cough induced by ammonia water in mice; type: in vivo, mouse
Experimental: Experimental example 6 The effect of protein BD-4 (Example 4 protein) on the antitussive effect of the cough induced by ammonia water in mice. Animals: male ICR mice; Drugs and reagents: dextromethorphan hydrobromide, ammonia, 0.2% CMC-Na, protein BD-4; Apparatus: Compressed nebulizer (403T type), balance (XS105DU type). Experiment Grouping: • Solvent control group; • Dextromethorphan 15 mg/kg group; • Protein BD-4, 20 mg/kg group, 50 mg/kg group. Method: Model Preparation and Administration:
Dextromethorphan and different doses of protein BD-4 (administration volume 10 ml/kg) were given orally in groups, and the solvent control group was given the same volume of distilled water. One hour later, it was put into a sealed box and atomized 10% ammonia water for 10 seconds, and then observed and recorded the incubation period of cough in mice and the number of coughs in 2 minutes.
Record the time point of oral administration, the time point of atomization experiment, the incubation period of mice cough and the number of coughs within 2 minutes, respectively. The incubation period of cough refers to the number of seconds from the start of the atomization of ammonia to the occurrence of cough. The performance of coughing in mice is based on contraction of their abdominal muscles (breast contraction) and opening their mouths at the same time. Calculate the mean and standard error of each group of data, use TTEST to compare the model group with other groups, and P<0.05 is considered as a significant difference.

[2] = tested on: PLO-induced epilepsy in mice; assay: Pilocarpine (PLO) induced convulsive epilepsy in mice; type: in vivo, mouse; details: Diazepam 2 mg/kg
Experimental: Experimental example 3 The pharmacodynamic test of protein BD-4 (Example 4 protein) on convulsive epilepsy in mice caused by the convulsion agent Pilocarpine (PLO)
Model group: • Diazepam (Diazepam) 2 mg/kg group; • Protein BD-4, 50 mg/kg group, 200 mg/kg group. Method: Model Preparation and Administration:
The drug was administered once in the afternoon the day before modeling, PLO-225 mg/kg (modeling agent) was injected intraperitoneally 1 hour after the test drug was given to the stomach on the day of modeling. And positive drug can be administered once 20 minutes before modeling. Observe for 30 minutes after PLO injection.
Observation indicators: 1) Seizure situation: the time of seizures from grade II to grade IV; 2) the time to death.
Attack level: Refer to Racine grading standard: Level 0: No response; Grade I: manifested as twitching of facial muscles or the corners of the mouth; Level II: can nod; Level III: Twitching of one limb; Grade IV: rigidity or body twitching; Grade V: generalized epilepsy (generalized tonic seizures).
Count the number of grade IV seizures and deaths in each group of mice in the experiment; Level II, III and IV incubation period. […] Chi-square test was used for statistics of the number of cases. The mean value and standard error of the incubation period were calculated, and TTEST was used to compare the model group with other groups. P<0.05 was considered as a significant difference.

[3] = tested on: PTZ-induced epilepsy in mice; assay: Pentylenetetrazole (PTZ) induced epilepsy in mice; type: in vivo, mouse; details: Retigabine 60 mg/kg
Experimental: Experiment Grouping: • Model group; • Retigabine 60 mg/kg group; • Protein BD-4, 50 mg/kg group, 200 mg/kg group; Method: Model Preparation and Administration:
Administer once in the afternoon the day before modeling, On the day of modeling, intraperitoneal injection of PTZ-65 mg/kg (modeling agent) 1 hour after gavage of the test drug, the positive drug can be administered once half an hour before modeling. Continue to observe for 15 minutes after injection of PTZ.
Observation index: 1) Seizure condition: Onset time of grade III to grade VI; 2) Death situation
Onset level: Refer to Racine grading standard: Level 0: No response; Grade I: manifested as twitching of facial muscles or the corners of the mouth; Level II: Can nod; Grade III: twitching of one limb; Grade IV: Rigidity or body twitching; Grade V: Generalized epilepsy (Generalized tonic seizures).
Count the number of seizures and deaths in each group of mice in the experiment; Level III and IV incubation period. The incubation period of mice that have not attacked to grade IV is recorded as the maximum of 900 seconds. Chi-square test was used for statistics of the number of cases. Calculate the mean and standard error of the incubation period. Use TTEST to compare the model group with other groups, and P<0.05 is considered as a significant difference.

[4] = tested on: lipopolysaccharide (LPS) induced fever in rats; assay: Lipopolysaccharide (LPS) induced fever in SD rats; type: in vivo, rat
Experimental: Experimental example 2 The pharmacodynamic test of protein BD-4 (Example 4 protein) on lipopolysaccharide (LPS) induced fever in SD rats.
Experiment Grouping: • Model group: lipopolysaccharide fever model; • Positive control group: Aspirin 300 mg/kg group, • Protein BD-4, 10 mg/kg group, 50 mg/kg group. Method: the method of intraperitoneal injection of Lipopolysaccharide to create fever model in rats.
(§1) Preparation of experimental animals: After the experimental animals adapt to the experimental environment (temperature 22° C.±2° C., relative humidity 50%±2%) for 1 day. Pre-adaptation to measure rectal temperature at 8:00 and 15:00, Rats were fasted and water was taken freely 12 h before experiment. before the experiment, let the animal to empty its feces before measuring the rectal temperature. Apply petroleum jelly to the electronic thermometer probe before each temperature measurement. Insert the rat rectum 2 cm (can be marked at 2 cm to ensure that the depth of each insertion is consistent), and record the body temperature after the reading is stable.
Intraperitoneal injection of lipopolysaccharide to replicate rat fever model: The body temperature of the rats was measured before modeling. Qualified rats with a body temperature of 36.2-37.3° C. were selected and randomly divided into groups with 8 rats in each group. After oral administration of aspirin and different doses of protein BD-4, lipopolysaccharide (20 μg/kg, 2 ml/kg) was injected intraperitoneally immediately, and the normal control group was injected intraperitoneally with an equal volume of normal saline. the rats' body temperature was monitored after 2 hours for a total of 8 hours.
(§2) According to the body temperature measured at each time point on the day of the experiment, calculate the mean, standard deviation and standard error of the body temperature of each group of rats. The data of each group was compared with TTEST, and P<0.05 was considered as a significant difference.

[5] = tested on: yeast-induced fever model in rats; assay: Yeast-induced fever model in SD rats; type: in vivo, rat
Experimental: Experimental example 1 The pharmacodynamic test of protein BD-4 (the protein in Example 4) on the fever model of SD rats induced by yeast
• Normal control group; • Model group: yeast fever model; • Positive control group: Aspirin 300 mg/kg group; • Protein BD-4, 10 mg/kg group, 50 mg/kg group. Method:
as §1, with “experiment.” for “experiment. before the experiment,”
Subcutaneous injection of dry yeast to replicate rat fever model: The body temperature of the rats was measured before modeling. Qualified rats with a body temperature of 36.2-37.3° C. were selected and randomly divided into groups with 8 rats in each group. After oral administration of aspirin and different doses of protein BD-4, 20% yeast suspension (10 ml/kg) was injected subcutaneously immediately, and the normal control group was injected intraperitoneally with an equal volume of normal saline. the rats' body temperature was monitored after 2 hours for a total of 8 hours.
as §2

[6] = tested on: acetic acid writhing of ICR mice; assay: Acetic acid writhing test in ICR mice; type: in vivo, mouse
Experimental: Experimental example 7 The pharmacodynamic test of protein BD-4 (Example 4 protein) on acetic acid writhing in ICR mice. Animals: male ICR mice; Drugs and reagents: aspirin, physiological saline, glacial acetic acid, protein BD-4. Experiment Grouping:
One day after the experimental animals adapt to the environment, Aspirin 300 mg/kg, protein BD-4 50 mg/kg, 200 mg/kg were given orally one hour in advance, and the administration volume was 10 ml/kg; Then, 0.6% acetic acid solution was injected into the abdominal cavity, and the latency period (seconds) and frequency of writhing in the animal was observed within 15 minutes.
Calculate the mean and standard error of the data in each group. Compared with the model group by TTEST, P<0.05 was considered as statistically different.
0.6% acetic acid solution was injected into the abdominal cavity of mice, which caused deep and large area and long-term painful stimulation, causing the mice to writhe (the abdomen was contracted into an “S” shape, the trunk and hind legs were stretched, the buttocks were raised and the hips Row). The incubation time and the number of times the mice began to writhe were used as the pain response index to determine whether the test sample had analgesic effect. […] Compared with the model group, P<0.05, which is statistically significant.

[7] = dextromethorphan 15 mg/kg, P<0.05
[8] = aspirin 300 mg/kg oral, 0.6% acetic acid i.p., within 15 minutes

Question: Which Incubation period ([1]; Dextromethorphan 15 mg/kg oral, cough latency, X ± SEM) does the source give for `COc1ccc2c(c1)[C@]13CCCC[C@@H]1[C@H](C2)N(C)CC3` [Dextromethorphan, dextromethorphan hydrobromide, reference compound] here?
Answer: 39.2 ± 2.8 s

Question: What about the Number of coughs ([1]; Dextromethorphan 15 mg/kg oral, within 2 minutes, X ± SEM) of the same compound?
Answer: 40.2 ± 3.5

Question: What about the “Cough incubation period vs solvent control group” value [1, 7] of the same compound?
Answer: significant improvement

Question: And the “Number of coughs vs solvent control group” value [1, 7]?
Answer: significant improvement

Question: What does the source list for `CN1C(=O)CN=C(c2ccccc2)c2cc(Cl)ccc21` [Diazepam, reference compound]?
Answer: Grade IV seizure rate ([2]; 10 mice, PLO 225 mg/kg i.p.): 0**; mortality rate ([2]; 10 mice, PLO 225 mg/kg i.p.): 0; Level II onset incubation period ([2]; mean ± SEM): 118 ± 9 s; Level III onset incubation period ([2]; mean ± SEM): 172 ± 13 s; Level IV onset incubation period ([2]; mean ± SEM, no grade IV attack recorded as 1800 s): 1800 ± 0 s; Number of deaths ([2]; of 10 mice, PLO 225 mg/kg i.p.): 0; Number of Grade IV cases ([2]; of 10 mice, PLO 225 mg/kg i.p., 30 min observation): 0**

Question: For `CCOC(=O)Nc1ccc(NCc2ccc(F)cc2)cc1N` [Retigabine, reference compound], which “Grade IV seizure rate” value ([3]; 10 mice, PTZ 65 mg/kg i.p.) is on record?
Answer: 10%**

Question: What about the mortality rate ([3]; 10 mice, PTZ 65 mg/kg i.p.) of the same compound?
Answer: 0

Question: What about the “Level III onset latency” value ([3]; mean ± SEM) of the same compound?
Answer: 106 ± 12 s

Question: What about the “Grade IV onset latency” value ([3]; mean ± SEM, no grade IV attack recorded as 900 s) of the same compound?
Answer: 819 ± 81 s

Question: And the Number of deaths ([3]; of 10 mice, PTZ 65 mg/kg i.p.)?
Answer: 0

Question: And the “Number of Grade IV cases” value ([3]; of 10 mice, PTZ 65 mg/kg i.p., 15 min observation)?
Answer: 1**

Question: With `CC(=O)Oc1ccccc1C(=O)O` [aspirin, reference compound] as the compound, how does the “Body temperature 2 hours after modeling” value ([4]; aspirin 300 mg/kg oral, 2 h after LPS 20 μg/kg i.p.) read?
Answer: 36.9 ± 0.2 °C

Question: What about the “Body temperature 4 hours after modeling” value ([4]; aspirin 300 mg/kg oral, 4 h after LPS 20 μg/kg i.p.) of the same compound?
Answer: 37.0 ± 0.1 °C

Question: And the “Body temperature 6 hours after modeling” value ([4]; aspirin 300 mg/kg oral, 6 h after LPS 20 μg/kg i.p.)?
Answer: 36.9 ± 0.1 °C

Question: And the “Body temperature 8 hours after modeling” value ([4]; aspirin 300 mg/kg oral, 8 h after LPS 20 μg/kg i.p.)?
Answer: 36.9 ± 0.1 °C

Question: And the “Effect on increase in body temperature of model rats” value ([4]; aspirin 300 mg/kg, 2, 4, 6 and 8 hours after modeling, vs model group P<0.05)?
Answer: effectively inhibit the increase in body temperature

Question: What about the “Body temperature 2 hours after modeling” value ([5]; aspirin 300 mg/kg oral, 2 h after 20% yeast s.c.) of the same compound?
Answer: 36.5 ± 0.1 °C

Question: And the “Body temperature 4 hours after modeling” value ([5]; aspirin 300 mg/kg oral, 4 h after 20% yeast s.c.)?
Answer: 36.9 ± 0.1 °C

Question: What about the “Body temperature 6 hours after modeling” value ([5]; aspirin 300 mg/kg oral, 6 h after 20% yeast s.c.) of the same compound?
Answer: 37.0 ± 0.1 °C

Question: And the “Body temperature 8 hours after modeling” value ([5]; aspirin 300 mg/kg oral, 8 h after 20% yeast s.c.)?
Answer: 37.2 ± 0.1 °C

Question: And the “Effect on increase in body temperature of model rats” value ([5]; aspirin 300 mg/kg, 4, 6 and 8 hours after modeling, vs model group P<0.05)?
Answer: effectively inhibit the increase in body temperature

Question: And the “Frequency of writhing vs model group” value ([6]; Aspirin 300 mg/kg, P<0.05)?
Answer: reduce the frequency of writhing

Question: And the “Incubation period of writhing vs model group” value ([6]; Aspirin 300 mg/kg, P<0.05)?
Answer: significantly delay the incubation period of writhing

Question: What about the Number of twists [6, 8] of the same compound?
Answer: 16.7 ± 2.6 times

Question: And the Writhing latency [6, 8]?
Answer: 301.0 ± 30.4 s
